The values below come from PubChem BioAssay (NCI).

Test systems include OVCAR-4 ovarian; PC-3 prostate; NCI-H460 lung; SK-MEL-5 melanoma; ACHN renal; SW-620 colon; MDA-MB-435; NCI-H522 lung; CAKI-1 renal; HCT-116 colon; NCI-H226 lung; K-562 leukemia; UACC-257 melanoma; UO-31 renal.
Common to all, as to test: NCI tumour cell line growth inhibition, 48 h

SMILES strings stand for the structures.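 Exposure lasted 48 hours, with cells grown in 96-well plates and compounds tested at five concentrations. At the GI50, growth is halved. Definition used: TGI = concentration required for complete inhibition of growth.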

For `c1ccc2c(c1)n1c(N3CCOCC3)[n+]3ccccc3c1c1c3cccc[n+]3c(N3CCOCC3)n21`, the TGI in the assay on OVCAR-4 ovarian, in the assay on PC-3 prostate, in the assay with NCI-H460 lung, in the assay on SK-MEL-5 melanoma, in the assay with ACHN renal and in the assay on SW-620 colon was above 100 µM in each case. For the same molecule, the TGI in the assay on MDA-MB-435, in the assay with NCI-H522 lung, with CAKI-1 renal, in the assay with HCT-116 colon, with NCI-H226 lung and with K-562 leukemia was above 100 µM throughout. This molecule came in with a TGI in the assay with UACC-257 melanoma above 100 µM.

With `Cc1ccc2nc(CN3CCCCC3)cc(=O)n2c1`, the TGI in the assay on OVCAR-4 ovarian, in the assay on PC-3 prostate, in the assay on NCI-H460 lung, in the assay on ACHN renal, in the assay on SW-620 colon and in the assay with MDA-MB-435 was above 100 µM each time. Moreover, the TGI with NCI-H522 lung, in the assay on CAKI-1 renal, in the assay with UO-31 renal, in the assay with HCT-116 colon, in the assay with NCI-H226 lung and with K-562 leukemia was above 100 µM in each case. Moreover, in the assay on UACC-257 melanoma, the TGI is above 100 µM.

As to `Cc1nc2c(n1CCCl)C(=O)c1ccccc1C2=O`, the TGI was 29.7 µM in the assay on OVCAR-4 ovarian; 46.1 µM in the assay on PC-3 prostate; 65.9 µM in the assay on NCI-H460 lung; above 100 µM in the assay on ACHN renal; 88.9 µM in the assay on SW-620 colon; 28.6 µM in the assay on MDA-MB-435. Moreover, the TGI in the assay with NCI-H522 lung was 49.6 µM; with HCT-116 colon it was 36.6 µM; in the assay with NCI-H226 lung, 50.1 µM; in the assay on K-562 leukemia, above 100 µM; in the assay on UACC-257 melanoma, 28.9 µM.

Consider `COc1ccccc1NC(=S)Nc1cccc(C)n1`, for which the TGI in the assay with OVCAR-4 ovarian, with PC-3 prostate, with NCI-H460 lung, with SK-MEL-5 melanoma, in the assay with SW-620 colon and with MDA-MB-435 was above 100 µM each time. Further, the TGI in the assay with NCI-H522 lung was 45.9 µM; in the assay with CAKI-1 renal, above 100 µM; in the assay with UO-31 renal, above 100 µM; with HCT-116 colon, above 100 µM; in the assay on NCI-H226 lung, above 100 µM; in the assay on K-562 leukemia, above 100 µM. The TGI in the assay on UACC-257 melanoma was above 100 µM.

`C#CCOC(=O)C(N)CS` (stereo not given): the TGI in the assay on PC-3 prostate, in the assay with SK-MEL-5 melanoma, in the assay with ACHN renal, in the assay on SW-620 colon, with MDA-MB-435 and in the assay with NCI-H522 lung was above 100 µM throughout. Also, the TGI in the assay with CAKI-1 renal, with UO-31 renal, with HCT-116 colon, with NCI-H226 lung, in the assay with K-562 leukemia and in the assay with UACC-257 melanoma was above 100 µM in each case.

As for `CC(C)CC(NC(=O)OCc1ccccc1)C(=O)NCCCCC(N)C(=O)NC(CCCCNC(=O)C(CC(C)C)NC(=O)OCc1ccccc1)C(=O)NC(CCCCNC(=O)C(CC(C)C)NC(=O)OCc1ccccc1)C(=O)NC(CCCCNC(=O)C(CC(C)C)NC(=O)OCc1ccccc1)C(=O)NC(CCCCNC(=O)C(CC(C)C)NC(=O)OCc1ccccc1)C(=O)NC(CCCCNC(=O)C(CC(C)C)NC(=O)OCc1ccccc1)C(=O)O` (stereo not given), the TGI with OVCAR-4 ovarian, in the assay with PC-3 prostate, in the assay on NCI-H460 lung, in the assay with SK-MEL-5 melanoma, in the assay on ACHN renal and in the assay on SW-620 colon was above 100 µM throughout. Also, the TGI in the assay on MDA-MB-435, with NCI-H522 lung, with UO-31 renal, with HCT-116 colon, in the assay on NCI-H226 lung and in the assay with K-562 leukemia was above 100 µM each time. Besides, the TGI in the assay with UACC-257 melanoma was above 100 µM.

With `CO[C@H]1C[C@@H]2CC[C@@H](C)[C@@](O)(O2)C(=O)C(=O)N2CCCC[C@H]2C(=O)O[C@H]([C@H](C)C[C@@H]2CC[C@@H](OC(=O)C(C)(CO)CO)[C@H](OC)C2)CC(=O)[C@H](C)/C=C(\C)[C@@H](O)[C@@H](OC)C(=O)[C@H](C)C[C@H](C)/C=C/C=C/C=C/1C`, the GI50 in the assay on PC-3 prostate is below 0.0487 µM; in the assay with SK-MEL-5 melanoma, 1.87 µM; with MDA-MB-435, 2.5 µM; with NCI-H522 lung, 0.121 µM; in the assay on NCI-H226 lung, 0.0187 µM. The TGI is above 81.6 µM in the assay on PC-3 prostate; above 100 µM in the assay with SK-MEL-5 melanoma; above 100 µM with ACHN renal; above 100 µM in the assay on SW-620 colon; above 100 µM in the assay on MDA-MB-435; above 49.6 µM in the assay on NCI-H522 lung. The TGI with CAKI-1 renal is above 79.7 µM; in the assay with UO-31 renal it was above 100 µM; in the assay with HCT-116 colon it was above 100 µM; in the assay on NCI-H226 lung, 22.1 µM; in the assay with K-562 leukemia, above 100 µM; with UACC-257 melanoma, 51.5 µM.

Turning to `CNC(=O)C(C)NC(=O)C(Cc1ccccc1)NC(=O)OC(C)(C)C` (stereo not given), the TGI in the assay with PC-3 prostate, with NCI-H460 lung, with SK-MEL-5 melanoma, with ACHN renal, in the assay on SW-620 colon and in the assay on MDA-MB-435 was above 100 µM each time. Moreover, the TGI in the assay with NCI-H522 lung, in the assay with CAKI-1 renal, in the assay with UO-31 renal, with HCT-116 colon, in the assay with NCI-H226 lung and in the assay on K-562 leukemia was above 100 µM throughout. Also, the TGI in the assay with UACC-257 melanoma was above 100 µM.

`Nc1ccccc1C(=O)NNC(=O)c1ccccc1N`: the TGI with OVCAR-4 ovarian, in the assay with PC-3 prostate, in the assay on SK-MEL-5 melanoma, with ACHN renal, in the assay on SW-620 colon and in the assay on MDA-MB-435 was above 100 µM in each case. The TGI with NCI-H522 lung, in the assay on CAKI-1 renal, in the assay with UO-31 renal, with HCT-116 colon, in the assay with NCI-H226 lung and with K-562 leukemia was above 100 µM each time. In the assay on UACC-257 melanoma, this molecule came in with a TGI above 100 µM.

For `CCOC(=O)C1C(C(C)C)C2(C#N)C(=N)OC1(C)C2(C#N)C#N` (stereo not given), the TGI in the assay with PC-3 prostate, in the assay on SK-MEL-5 melanoma, in the assay on ACHN renal, in the assay on SW-620 colon, in the assay on MDA-MB-435 and in the assay with NCI-H522 lung was above 100 µM in each case. The TGI is 23 µM in the assay with CAKI-1 renal; above 100 µM in the assay on UO-31 renal; above 100 µM with HCT-116 colon; above 100 µM with NCI-H226 lung; above 100 µM in the assay with K-562 leukemia; above 100 µM in the assay with UACC-257 melanoma.
